In general, LD50 refers to the dose expected to kill half of the subjects tested. Low readings indicate a more toxic substance, high ones a less toxic substance.

This is an account of results in patent EP0036153A1, “1,1-Diphenyl-2-(1,2,4-triazol-1-yl)-ethan-1-oles as antimycotic agents” (BASF Aktiengesellschaft, priority 1980, dated 1981).

Data set [1] has as its system Candida albicans (Robin) Berkhout No 20/M. Kind of data set: Pseudomycelium and mycelium phase test with Candida albicans (minimal inhibitory concentration, 100 % inhibition). The data set is classed as cell-based. Conditions: microaerophilic, 2 days, 37°C; for MIC: Candida albicans, 48 h, read-out: MHKMyzelph. The source says: Pseudomyzel- und Myzelphasentest mit Candida albicans: • Dieser Test berücksichtigt, daß C. albicans in vivo nicht nur Sproßzellen, sondern auch Pseudomyzel und echtes Myzel ausbilden kann (Dimorphie). In vitro wird die Ausbildung aller Wachstumsphasen dieses Keimes und der Einfluß von antimyzetisch wirksamen Substanzen in folgender Weise geprüft: Candida albicans (Robin) Berkhout No 20/M (Stamm der Mykothek, Nordmark-Werke GmbH) wird mit der Impföse einerseits auf die Oberfläche A des Nährmediums (Brain Heart Infusion, Difco) und andererseits bei B als Stichkultur angeimpft (Figur).
Im Bereich der Stichkultur wird zusätzlich ein Deckglas C aufgelegt (mikroaerophile Bedingungen). Die Petrischale D enthält im Nährmedium eine geometrisch abgestufte Verdünnungsreihe der jeweiligen Prüfsubstanz. Nach Inkubation dieser Testplatten (2 Tage, 37°C) sind in präparatefreien Kontrollplatten im aeroben Berzirk A ausschließlich Sproßzellen (Hefephase), im mikroaerophilen Bezirk B ausschließlich Pseudohyphen und echte Hyphen gewachsen.
Als minimale Hemmkonzentrationen wurden diejenigen Konzentrationsstufen des Prüfpräparates bezeichnet, bei denen eine 100 %ige Hemmung des jeweiligen Pilzwachstums zu beobachten war.
Diese Testanordnung ermöglicht es, zwischen der minimalen Hemmkonzentration der Hefephase (MHKHefephase) ) und der MHK der Pseudomyzelphase bzw. M^yzelphase (MHKMyzelDhase) für Candida albicans zu unterscheiden.
Während die MHK-Werte für die Hefephase bei über 128 µg/ml liegen, ergeben sich für die Mycelphase äußerst niedrige MHK-Werte, wie aus der Tabelle 1 hervorgeht.

Data set [2] can be described thus: Acute oral toxicity (LD50) in the mouse. The data set is classed as in vivo. Conditions: for LD50: mouse, in vivo, po, Maus.
Data set [3] deals with M. audouinii. Kind of data set: Agar dilution test against dermatophytes. The data set is classed as cell-based. Conditions: Microsporum audouinii; M. audouinii No. 4; read-out: MHK. The text has this:
(§1) Die antimikrobielle Wirksamkeit in vitro gegen Dermatophyt wurde im Agar-Dilutionstest (Lit.: P. Klein "Bakteriologische Grundlagen der chemotherapeutischen Laboratoriumspraxis") ermittelt. Das Ergebnis dieser Untersuchungen am Beispiel der Verbindung Nr. 3 zeigt Tabelle 2.
Background: Agar dilution tests growth on a series of plates holding different concentrations.

The subject of data set [4] is T. violaceum. Description: Agar dilution test against dermatophytes. The format is cell-based. Conditions: Trichophyton violaceum; T. violaceum No. 10; read-out: MHK.
Excerpt: as §1

Data set [5] relates to M. canis. Kind of data set: Agar dilution test against dermatophytes. Conditions: Microsporum canis, read-out: MHK. The format is cell-based.
Excerpt: as §1

For data set [6], the system named is T. schoenleinii. Kind of data set: Agar dilution test against dermatophytes. The format is cell-based. Conditions: T. schoenleinii No. 9; read-out: MHK.
Excerpt: as §1

The test system of data set [7] is T. mentagroph. Description: Agar dilution test against dermatophytes. The data set is classed as cell-based.
Excerpt: as §1

In data set [8] the test system is E. floccosum. Kind of data set: Agar dilution test against dermatophytes. The format is cell-based. Conditions: Epidermophyton floccosum; E. floccosum No. 157; read-out: MHK.
Excerpt: as §1

Data set [9] has as its system M. ferrugineum. Description: Agar dilution test against dermatophytes. The format is cell-based. Conditions: M. ferrugineum No. 5; read-out: MHK.
Excerpt: as §1

In brackets after ≈: the same amount, converted by molar mass. Structures can show the parent of a compound that is named as a salt. Where two headings read alike, the source gives them in different places.

Turning to `OC(Cn1cncn1)(c1ccc(Cl)cc1)c1ccc(Cl)cc1Cl` (centres unmarked) [Beispiel 4, 1-(4-Chlorphenyl)-1-(2,4-dichlorphenyl)-2-(1.2.4--triazol-1-yl)-äthan-1-ol-hydrochlorid], in data set [1], the MHKMyzelph. is recorded as <0,125 µg/ml. For the same compound, the “LD50 (Maus) p.o.” value in [2] is above 1000 mg/kg.

In the case of `OC(Cn1cncn1)(c1ccc(Cl)cc1)c1ccc(Cl)cc1Cl` (centres unmarked) [Beispiel 3, 1-(4-Chlorphenyl)-1-(2,4-dichlorphenyl)-2-(1,2,4-triazol-1-yl)-äthan-1-ol], the MIC in data set [3] came out at 0.25 µg/mL (≈ 0.678 µM); in data set [4] it was 2 µg/mL (≈ 5.43 µM); in data set [5] (M. canis No. 167) it was 4 µg/mL (≈ 10.9 µM); in [5] (M. canis No. 168), 2 µg/mL (≈ 5.43 µM); in data set [5] (M. canis No. 169), 8 µg/mL (≈ 21.7 µM); in data set [6] it was 0.25 µg/mL (≈ 0.678 µM). Further, the MIC in data set [7] (T. mentagroph. No. 172, read-out: MHK) is 0.25 µg/mL (≈ 0.678 µM); in data set [8] it was 16 µg/mL (≈ 43.4 µM); in [9], 0.5 µg/mL (≈ 1.36 µM); in data set [1] it was below 0.125 µg/mL. The MHK in [7] (T. mentagroph. No. 173) is listed as 0,25 µg/ml. For the same compound, the “LD50 (Maus) p.o.” value in data set [2] is recorded as above 4000 mg/kg.

`OC(Cn1cncn1)(c1ccccc1)c1ccc(Cl)cc1Cl` (centres unmarked) [Beispiel 9, 1-Phenyl-1-(2,4-dichlorphenyl)-2-(1.2.4-triazol-1-yl)--äthan-1-ol]: the MIC in data set [1] is below 0.125 µg/mL. The compound further returned an LD50 in data set [2] above 1000 mg/kg.

In data set [1], `OC(Cn1cncn1)(c1cccc(Cl)c1)c1ccc(Cl)cc1Cl` (centres unmarked) [Beispiel 16, 1-(3-Chlorphenyl)-1-(2,4-dichlorphenyl)-2-(1.2.4-triazol-1-yl)-äthan-1-ol-hydrochlorid] registered an MHKMyzelph. of 1 µg/mL. Further, the “LD50 (Maus) p.o.” value in data set [2] was above 1000 mg/kg.

`OC(Cn1cncn1)(c1ccccc1)c1ccccc1Cl` (centres unmarked) [Beispiel 6, 1-Phenyl-1-(2-chlorphenyl)-2-(1.2.4-triazol-1-yl)--äthan-1-ol-hydrochlorid]: the MIC in [1] is below 0.125 µg/mL. Further, in [2], the LD50 is above 1000 mg/kg.

For the compound `OC(Cn1cncn1)(c1ccccc1)c1ccc(Cl)cc1Cl` (centres unmarked) [Beispiel 11, 1-Phenyl-1-(2,4-dichlorphenyl)-2-(1.2.4-triazol-1-yl)--äthan-1-ol-nitrat], the MHKMyzelph. in data set [1] is <0,125 µg/ml. Moreover, the “LD50 (Maus) p.o.” value in [2] was above 1000 mg/kg.

As to `OC(Cn1cncn1)(c1ccc(Cl)cc1)c1ccc(Cl)cc1` [Beispiel 1, 1,1-Bis-(4-chlorphenyl)-2-(1.2.4-triazol-1-yl)--äthan-1-ol], the MIC in data set [1] was below 0.125 µg/mL. The LD50 in data set [2] was above 1000 mg/kg.

For the compound `OC(Cn1cncn1)(c1ccccc1)c1ccc(Cl)cc1` (centres unmarked) [Beispiel 7, 1-Phenyl-1-(4-chlorphenyl)-2-(1.2.4-triazol-1-yl)-äthan--1-ol-hydrochlorid], the “LD50 (Maus) p.o.” value in [2] is above 1000 mg/kg.

Take `OC(Cn1cncn1)(c1ccc(Cl)cc1)c1ccc(Cl)cc1` [Beispiel 2, 1,1-Bis-(4-chlorphenyl)-2-(1.2.4-triazol-1-yl)--äthan-1-ol-hydrochlorid]: in data set [1], the MHKMyzelph. is <0,125 µg/ml. Besides, the “LD50 (Maus) p.o.” value in [2] was above 1000 mg/kg.

`OC(Cn1cncn1)(c1ccccc1Cl)c1ccc(Cl)cc1Cl` (centres unmarked) [Beispiel 13, 1-(2-Chlorphenyl)-1-(2,4-dichlorphenyl)-2-(1.2.4-triazol-1-yl)-äthan-1-ol]: the MIC in [1] amounted to 1 µg/mL (≈ 2.71 µM). This compound also yielded an LD50 in data set [2] above 1000 mg/kg.

For the compound `OC(Cn1cncn1)(c1ccc(Cl)cc1)c1ccc(Cl)cc1Cl` (centres unmarked) [Beispiel 5, 1-(4-Chlorphenyl)-1-(2,4-dichlorphenyl)-2-(1.2.4--triazol-1-yl)-äthan-1-ol-nitrat], the MHKMyzelph. in data set [1] is <0,125 µg/ml. In [2], the “LD50 (Maus) p.o.” value is recorded as above 1000 mg/kg.

In the case of `OC(Cn1cncn1)(c1ccccc1)c1ccc(Cl)cc1Cl` (centres unmarked) [Beispiel 10, 1-Phenyl-1-(2,4-dichlorphenyl)-2-(1.2.4-triazol-1-yl)--äthan-1-ol-hydrochlorid], in data set [1], the MHKMyzelph. is listed as <0,125 µg/ml. In [2], the “LD50 (Maus) p.o.” value is on record as above 1000 mg/kg.

Take `OC(Cn1cncn1)(c1ccc(Cl)cc1)c1ccccc1Cl` (centres unmarked) [Beispiel 12, 1-(2-Chlorphenyl)-1-(4-chlorphenyl)-2-(1.2.4-triazol--1-yl)-äthan-1-ol-hydrochlorid]: in data set [1], the MIC was 1 µg/mL. The compound further gave an LD50 in data set [2] above 1000 mg/kg.

Take `OC(Cn1cncn1)(c1ccccc1Cl)c1ccc(Cl)cc1Cl` (centres unmarked) [Beispiel 14, 1-(2-Chlorphenyl)-1-(2,4-dichlorphenyl)-2-(1.2.4-triazol-1-yl)-äthan-1-ol-hydrochlorid]: the MHKMyzelph. in data set [1] was 1 µg/mL. For the same compound, the “LD50 (Maus) p.o.” value in [2] was above 1000 mg/kg.

Take `OC(Cn1cncn1)(c1ccccc1)c1ccc(Cl)cc1` (centres unmarked) [Beispiel 8, 1-Phenyl-1-(4-chlorphenyl)-2-(1.2.4-triazol-1-yl)--äthan-1-ol-nitrat]: the MIC in data set [1] was below 0.125 µg/mL. Also, the LD50 in data set [2] is above 1000 mg/kg.

Take `OC(Cn1cncn1)(c1cccc(Cl)c1)c1ccc(Cl)cc1Cl` (centres unmarked) [Beispiel 15, 1-(3-Chlorphenyl)-1-(2,4-dichlorphenyl)-2-(1.2.4-triazol-1-yl)-äthan-1-ol]: in data set [1], the MHKMyzelph. was <0,125 µg/ml. In data set [2], the LD50 was above 1000 mg/kg.
